{"source": "patent US10927343B2", "about": "“Therapeutic apoptotic cell preparations, method for producing same and uses thereof” (ENLIVEX THERAPEUTICS LTD, priority 2012, dated 2021)"}
{"tested_on": "NLRP3 inflammasome-induced IL-1β release from murine peritoneal macrophages (pMΦ)", "assay": "IL-1β release from primary resident peritoneal macrophages (ELISA)", "format": "cell-based, mice", "settings": "LPS + 3% DSS, z-YVAD-fmk 10 μM, K+ 130 mM, bafilomycin A1 10 nM, NAC 20 mM", "method": "Primary resident peritoneal macrophages (pMΦ) of WT or Nlrp3−/− mice were generated as described elsewhere (Bauer et al. 2010). Briefly, mice were sacrificed under isoflurane anesthesia by cervical dislocation. Peritoneal lavage was then performed by exposing the parietal peritoneum and injecting intraperitoneally with a transpipette 10 ml of 2% FBS in PBS. The peritoneal lavage fluid was centrifuged and re-suspended at the desired concentration. The adherent pMΦ (F 4/80 positive cells) subset consists about 20% of the peritoneal lavage as observed by flow cytometer analysis. Cells were then plated into culture dishes overnight. Cells were washed, and adherent cells were used for cytokine assays. Where indicated, experiments were performed after four weeks of co-housing WT and NLRP3-deficient mice to neutralize the microbiota effect.\npMΦ were seeded into 96-well plates at a density of 2×10^5 cells per well. After LPS priming for 1 h, cells were stimulated with different activators for 24 h. Cell culture supernatant was used for ELISA (Biolegend, San Diego Calif., USA), which was performed according to the manufacturer's protocol.\nIn order to examine the effect of the apoptotic cell composition on inflammasome-induced IL-1β release, isolated macrophages were exposed to lipopolysaccharide (LPS) and DSS with or without earlier interaction with apoptotic cells for two hours.\nGiven the need for TLR triggering through NF-κB signaling, and the fact that apoptotic cells can inhibit NF-κB, and therefore inhibit […] secretion in the absence of inflammasome inhibition, a set of experiments was initiated to elucidate whether IL-1β secretion is inhibited both at NF-κB and NLRP3 levels by apoptotic cells. Resident peritoneal macrophages (pMΦ) were either incubated with apoptotic cells, washed, and primed with LPS following stimulation with various inflammasome inducers, or were first primed with LPS, allowing accumulation of de novo […] transcription and then treated with apoptotic cells and inducers."}
{"compound": "z-YVAD-fmk", "DSS-mediated IL-1β release": "almost complete inhibition"}
{"compound": "CC(=O)N[C@@H](CS)C(=O)O", "note": "[N-acetyl-L-cysteine]", "DSS-mediated IL-1β release": "significantly inhibited"}
{"compound": "CO/C1=C\\C(C)=C\\[C@@H](C)[C@@H](O)[C@@H](C)C/C(C)=C/C=C/[C@H](OC)[C@@H]([C@@H](C)[C@@H](O)[C@H](C)[C@@]2(O)C[C@@H](O)[C@H](C)[C@@H](C(C)C)O2)OC1=O", "note": "[bafilomycin, bafilomycin A1]", "DSS-mediated IL-1β release": "inhibited"}
{"compound": "[Cl-].[K+]", "note": "[KCl]", "DSS-mediated IL-1β release": "inhibited"}
